Structures are written as SMILES. Values joined by “and” are separate entries in the source; they are usually repeats but may differ in a detail not shown here. Equal entries are not always repeated.

1 compound from patent publication US20180153872A1, “HETEROARYL CARBONITRILES FOR THE TREATMENT OF DISEASE” (OPKO Health, Inc., priority 2015, published 2018) can be followed below.

Data set [1] can be described thus: Plasma concentration after oral dose in dogs. It counts as in vivo. Conditions: dog, 0.3 mg/kg oral. As to the method: (§1) The antitussive activity of SCH 900978 was also evaluated against cough induced by mechanical stimulation of the intrathoracic trachea in anesthetized dogs. Cough was measured in each stimulation trial by the cough frequency (number of coughs) and cough amplitude (cm H2O increase in expiratory pressure). […] Plasma concentration of SCH900978 at 2, 6 and 25 hours after administration of the 0.3 mg/kg dose to dogs were 201, 151 and 102 ng/mL (373, 280 and 189 nM), respectively.

Data set [2] has as its system cough induced by mechanical stimulation of the intrathoracic trachea. Briefly: Mechanically induced cough in anesthetized dogs. Particulars: anesthetized dog, 0.3 mg/kg oral. The format is in vivo. As to the method:
as §1

As for `C[C@@H](OC[C@@]1(c2ccccc2)CC[C@](C#N)(n2cn[nH]c2=O)CN1)c1cc(C(F)(F)F)cc(C(F)(F)F)c1` [Compound 42, (3 S,6S)-6-({(1R)-1-[3,5-bis(trifluoromethyl)phenyl]ethoxy}methyl)-3-(5-oxo-1,5dihydro-4H-1,2,4-triazol-4-yl)-6-phenylpiperidine-3-carbonitrile], the concentration at 2 h in data set [1] (2 hours) was 201 ng/mL and 373 nM. Moreover, in data set [1] (6 hours), the concentration at 6 h was 151 ng/mL and 280 nM. Moreover, the concentration at 25 h in data set [1] (25 hours) is 102 ng/mL and 189 nM. In data set [2], the “duration of significantly reduced cough amplitude” value is “up to 24 hours” and the “duration of significantly reduced cough frequency” value is on record as “up to 24 hours”.
